Experimental data reported in article PMC5321753, “Enhanced expression of ADCY1 underlies aberrant neuronal signalling and behaviour in a syndromic autism model” (Nature Communications, 2017).

Assays:
ADCY1 = ADCY1 protein (western blot) and Adcy1 mRNA (qRT-PCR) in cultured hippocampal neurons after DHPG; type: cell-based, mouse; conditions: DHPG 100 μM
Experimental: (§1) Primary hippocampal neurons were cultured as described, and used for the examination of mGluR1/5-mediated signalling and protein synthesis. Neurons were treated with 100 μM DHPG ((RS)-3,5-dihydroxyphenylglycine). Protein level and mRNA level were examined by western blot (for ADCY1, β-actin, p-ERK1/2 and ERK1/2) and quantitative RT-PCR (for Adcy1 and Gapdh mRNA), respectively.

ERK1/2 = ERK1/2 activation in cultured hippocampal neurons after DHPG; type: cell-based, mouse; conditions: both WT and Fmr1 KO neurons, DHPG 100 μM
Experimental: as §1

fly model of FXS = tested on: fly model of FXS; set-up: method as in PMID 25568131; conditions: cited from earlier work
WT and Fmr1 KO mice [1] = test: Light/dark test; type: in vivo, mouse
Experimental: Light/dark test was examined as described in our previous study. Light/dark test was performed using 3-month (+/−10 days) old mouse, which was first placed in the dark half of the chamber (Coulbourn Instruments). After 1 min of habituation, the trap door was opened and the mouse was allowed to move freely between the two chambers for 5 min. The time spent in each chamber and the number of entries into the lit side were recorded.
(§2) NB001 was dissolved in water to give a 25 mM stock solution. The stock was diluted in saline and IP injected into mice at 1 mg kg^−1 body weight. In all cases, the drug was administered 1 h before testing. Control mice were treated similarly but injected with saline.
(§3) To inhibit phosphodiesterase (PDE), rolipram was dissolved in 10% kolliphore and IP injected into mice at 0.5 or 0.03 mg kg^−1. The use of the higher dose (that is, 0.5 mg kg^−1) was to ensure sufficient inhibition of PDE[44][45]. […] Rolipram- or vehicle (10% kolliphore)-injected mice were examined with light/dark test and AGS 30 min after drug administration.

cAMP = tested on: cAMP; set-up: method as in PMID 9844008; conditions: lower dose 0.03 mg kg^-1; cited from earlier work
Fmr1 KO mice [2] = tested on: Fmr1 KO mice; set-up: method as in PMID 27445731; conditions: cited from earlier work
WT and Fmr1 KO mice [3] = test: Audiogenic seizures (AGS) induced by 120 dB sound; type: in vivo, mouse
Experimental: Audiogenic seizures (AGS) were examined with 21- to 24-day-old-mouse (7), as this phenotype is dependent on the age of the mouse and only detected in juvenile Frm1 KO mouse. Mouse was placed in a box (30 cm L × 17 cm W × 12 cm H) with a flat plastic lid. A personal alarm (Streetwise, item # SWPDAL) was taped to the lid of the box and wired to a DC power supply to keep the sound amplitude constant. The mouse was allowed to acclimatize to the box for 5 min, following which 120 dB sound was emitted from the alarm for 2 min. The number of mice undergoing seizure activity within the 2-min period was counted. Audiogenic seizures were classified into different stages: wild running, clonic/tonic seizure and death.
as §2, §3

Fmr1 KO mice [4] = tested on: Fmr1 KO mice; set-up: method as in PMID 25568131; conditions: cited from earlier work
[5] = Fmr1 KO mice, rolipram at 0.5 or 0.03 mg kg^-1, systemic
[6] = Fmr1 KO mice, rolipram 0.03 mg per kg, 30 min before 120 dB stimulation
[7] = Fmr1 KO mice, rolipram 0.5 mg kg^-1 IP, 30 min before testing, 120 dB
[8] = WT mice, rolipram 0.03 mg per kg, 30 min before 120 dB stimulation
[9] = WT mice, rolipram 0.5 mg kg^-1 IP, 30 min before testing, 120 dB

Question: With `NC(C(=O)O)c1cc(O)cc(O)c1` (racemic) [DHPG, (RS)-3,5-dihydroxyphenylglycine] as the compound, how does the “ADCY1 protein level in Fmr1 KO neurons” value (ADCY1; cultured Fmr1 KO hippocampal neurons) read?
Answer: Its value is “no DHPG-triggered increase”.

Question: What about the “Adcy1 mRNA levels” value (ADCY1; cultured WT and Fmr1 KO hippocampal neurons) of the same compound?
Answer: Its value is “did not alter”.

Question: What about the “ADCY1 protein level in WT neurons” value (ADCY1; cultured WT hippocampal neurons) of the same compound?
Answer: The value was “up-regulation”.

Question: And the “downstream intracellular signalling target ERK1/2” value (ERK1/2)?
Answer: The value was “activates”.

Question: With `COc1ccc(C2CNC(=O)C2)cc1OC1CCCC1` (stereo not drawn) [rolipram] as the compound, how does the “learning and memory in the fly model of FXS” value (fly model of FXS) read?
Answer: The value was “improved”.

Question: And the “abnormal behaviour in light/dark test” value (WT and Fmr1 KO mice [1]; [5])?
Answer: The value was “did not correct”.

Question: What about the “behavioral changes in light/dark test (treatment effect)” value (WT and Fmr1 KO mice [1]; WT or Fmr1 KO mice, rolipram 0.03 mg per kg i.p., 30 min after injection) of the same compound?
Answer: Its value is “n.s”.

Question: What about the “behavioural changes in light/dark test (drug effect)” value (WT and Fmr1 KO mice [1]; WT or Fmr1 KO mice, rolipram 0.5 mg kg^-1 i.p., 30 min after injection) of the same compound?
Answer: Its value is “does not cause significant behavioural changes”.

Question: What about the cAMP changes (cAMP) of the same compound?
Answer: Its cAMP changes is “not sufficient to cause cAMP changes”.

Question: What about the “signalling abnormalities in the hippocampus” value (Fmr1 KO mice [2]) of the same compound?
Answer: Its value is “failed to correct”.

Question: And the “% Clonic/tonic seizure” value (WT and Fmr1 KO mice [3]; [6])?
Answer: The value was 35.7%.

Question: And the “% Death” value (WT and Fmr1 KO mice [3]; [6])?
Answer: The value was 14.3%.

Question: What about the “% Wild running” value (WT and Fmr1 KO mice [3]; [6]) of the same compound?
Answer: The value was 50%.

Question: What about the “% Clonic/tonic seizure” value (WT and Fmr1 KO mice [3]; [7]) of the same compound?
Answer: Its value is 46.7%.

Question: And the “% Death” value (WT and Fmr1 KO mice [3]; [7])?
Answer: The value was 13.3%.

Question: What about the “% Wild running” value (WT and Fmr1 KO mice [3]; [7]) of the same compound?
Answer: The value was 60%.

Question: And the AGS (WT and Fmr1 KO mice [3]; [5])?
Answer: The AGS was “did not correct”.

Question: And the “% Clonic/tonic seizure” value (WT and Fmr1 KO mice [3]; [8])?
Answer: Its value is 0%.

Question: And the “% Death” value (WT and Fmr1 KO mice [3]; [8])?
Answer: The value was 0%.

Question: What about the “% Wild running” value (WT and Fmr1 KO mice [3]; [8]) of the same compound?
Answer: The value was 13.3%.

Question: And the “% Clonic/tonic seizure” value (WT and Fmr1 KO mice [3]; [9])?
Answer: Its value is 0%.

Question: What about the “% Death” value (WT and Fmr1 KO mice [3]; [9]) of the same compound?
Answer: The value was 0%.

Question: And the “% Wild running” value (WT and Fmr1 KO mice [3]; [9])?
Answer: Its value is 25%.

Question: What about the “exaggerated mGluR1/5-mediated long-term synaptic depression phenotype” value (Fmr1 KO mice [4]) of the same compound?
Answer: The value was “rescued”.
